Common to all, as to type: cell-based, human
Experiment [1] relates to multiple myeloma cell lines (U266, RPMI 8226, MM.1, MM.1R). The experiment can be described thus: Growth/proliferation of all multiple myeloma cell lines tested (statement for all lines). Particulars: curcumin 10 μM. The text has this: The results are shown as the mean (±s. d.) cell count from triplicate cultures.
The subject of the next experiment is Bcl-xL. The experiment is described as follows: Western blot for NF-κB-regulated gene product Bcl-xL in U266 cells. Particulars: curcumin 50 μM, time course. Here is the method:
(§1) Sixty micrograms of cytoplasmic extracts were resolved on 10% SDS-PAGE gel, electrotransferred on a nitrocellulose membrane, and probed for the following: IκBα (FIG. 4A); Bcl-2 (FIG. 4B); Bcl-xL (FIG. 4C) and cyclin D1 (FIG. 4D). The same blots were stripped and reprobed with anti-β-actin antibody to show equal protein loading (lower panel in each figure). FIG. 4E: […] U266, MM.1 or RPMI 8226 cells (1×10^7) were treated with curcumin ([…]) in 5 ml of medium for the indicated times. Supernatants were harvested and concentrated approximately 20×, and IL-6 was quantitated by an IL-6 ELISA kit. Values shown were normalized to 1 ml of un-concentrated supernatants. Thirty to fifty micrograms of cytoplasmic protein extracts prepared as described (Chaturvedi et al., 2000) were resolved on 10% SDS-PAGE gel. After electrophoresis, the proteins were electrotransferred to a nitrocellulose membrane, blocked with 5% nonfat milk, and probed with antibodies against either IkBa, phospho-IkBa, Bcl-2, Bcl-xL, or cyclin D1 (1:3000) for 1 h. Thereafter, the blot was washed, exposed to HRP-conjugated secondary antibodies for 1 h, and finally detected by chemiluminescence (ECL, Amersham Pharmacia Biotech., Arlington Heights, Ill.).

For the next experiment, the system named is caspase-7. The experiment is described as follows: Western blot for procaspase-7 (apoptosis). As to conditions: U266, curcumin 50 μM, time course. Here is the method:
The cells were washed and total proteins were extracted by lysing the cells. Sixty microgram of extracts were resolved on 10% SDS-PAGE gel, electrotransferred to a nitrocellulose membrane, and probed with anti-procaspase-9 (FIG. 6C), anti-procaspase-7 (FIG. 6D), anti-PARP (FIG. 6E, upper panel) and anti-cleaved PARP (FIG. 6E, lower penal). […] Lysates were then spun at 14000 rpm for 10 min to remove insoluble material, resolved on 7.5% gel and probed with PARP antibodies. PARP was cleaved from the 116-kDa intact protein into 85-kDa and 40-kDa peptide products. To detect cleavage products of procaspase 7 and procaspase 9, whole cell extracts were resolved on 10% gel and probed with appropriate antibodies.
On the technique in general: In western blotting, separated proteins are transferred to a membrane and probed.

In the next experiment the test system is U266 cells. The experiment can be described thus: Proliferation by thymidine incorporation. As to conditions: U266, 24 h, different concentrations. Here is the method:
FIG. 6A: U266 cells (5000 cells/0.1 ml) were incubated with different concentrations of curcumin for 24 hours, and cell proliferation assay was performed as described. Results are shown as mean (±s.d.) of percent [^3H}-thymidine incorporation of triplicate cultures compared to untreated control. FIG. 6B: U266 cells (5000 cells/0.1 ml) were incubated with different concentrations of curcumin for 24 hours, and cell viability was determined by MTT method. The results are shown as the mean (±s.d.) percent viability from triplicate cultures. The antiproliferative effects of curcumin were also monitored by the thymidine incorporation method. Five thousand cells in […] medium were cultured in triplicate in 96-well plates in the presence or absence of curcumin for 24 h. Six hours before the completion of experiment, the cells were pulsed with […] ^3H-thymidine, and the uptake of ^3H-thymidine was monitored using a Matrix-9600 b-counter (Packard Instruments, Downers Grove, Ill.).

For a further experiment, the system named is IKKα and IKKβ. The experiment is described as follows: Western blot for total IKKα and IKKβ proteins in U266 cytoplasmic extracts. As to conditions: U266 cells, curcumin 50 μM. As to the method: FIG. 3A: Level of phosphorylated IκBα determined by Western blotting. FIG. 3B: Immunoprecipitated IκB kinase and kinase assay of IκB kinase activity (upper panel) or Western blotting for the analysis of total IKKα and IKKβ proteins in cytoplasmic extracts (lower panel). FIG. 3C: IκB kinase was immunoprecipitated and kinase assay was performed in the absence or presence of the indicated concentrations of curcumin (upper panel). Lower panel indicates the amount of GST-IκBα protein stained with Coomassie Blue in each well in the same dried gel. To determine the total amount of IKK complex in each sample, […] of cytoplasmic protein was resolved on a 7.5% acrylamide gel and then electrotransferred to a nitrocellulose membrane. The membrane was blocked with 5% nonfat milk protein for 1 h and then incubated with either anti-IKKα or anti-IKKβ antibodies for 1 h. The membrane was then washed and treated with HRP-conjugated secondary anti-mouse IgG antibody and finally detected by chemiluminescence (Amersham Pharmacia Biotech, Arlington Heights, Ill.).

In the next experiment the test system is IκBα phosphorylation. The experiment can be described thus: Western blot for phosphorylated IκBα in U266 cells. As to conditions: curcumin 50 μM, time course. Here is the method:
FIG. 3A: Level of phosphorylated IκBα determined by Western blotting. FIG. 3B: Immunoprecipitated IκB kinase and kinase assay of IκB kinase activity (upper panel) or Western blotting for the analysis of total IKKα and IKKβ proteins in cytoplasmic extracts (lower panel). FIG. 3C: IκB kinase was immunoprecipitated and kinase assay was performed in the absence or presence of the indicated concentrations of curcumin (upper panel). Lower panel indicates the amount of GST-IκBα protein stained with Coomassie Blue in each well in the same dried gel. Thirty to fifty micrograms of cytoplasmic protein extracts prepared as described (Chaturvedi et al., 2000) were resolved on 10% SDS-PAGE gel. After electrophoresis, the proteins were electrotransferred to a nitrocellulose membrane, blocked with 5% nonfat milk, and probed with antibodies against either IkBa, phospho-IkBa, Bcl-2, Bcl-xL, or cyclin D1 (1:3000) for 1 h. Thereafter, the blot was washed, exposed to HRP-conjugated secondary antibodies for 1 h, and finally detected by chemiluminescence (ECL, Amersham Pharmacia Biotech., Arlington Heights, Ill.).

Another experiment deals with IκBα. The experiment is described as follows: Western blot for NF-κB-regulated gene product IκBα in U266 cells. As to conditions: curcumin 50 μM, time course. Here is the method: as §1

Entries after “also recorded” stand apart in the source; their conditions may differ.

Consider `COc1cc(/C=C/C(=O)CC(=O)/C=C/c2ccc(O)c(OC)c2)ccc1O` [curcumin, diferuloylmethane], for which the suppression of growth/proliferation result in experiment [1] was “completely suppressed the growth; also recorded: almost complete inhibition of proliferation”. Further, the Bcl-xL protein level result in the experiment with Bcl-xL is listed as “only a partial decline”. Further, the “activation of caspase-7 (disappearance of 35-kDa band)” value with caspase-7 is recorded as “time-dependent activation”. The thymidine incorporation result with U266 cells is listed as “suppressed thymidine incorporation within 24 h in a dose-dependent manner”. The “protein levels of IκB kinase subunits IKKα and IKKβ” value in the experiment with IKKα and IKKβ is reported as “no significant change”. For the same molecule, in the experiment on IκBα phosphorylation, the “phosphorylated IκBα content” value is reported as “decreased rapidly”. Also, the IκBα protein level result with IκBα is “only a partial decline”.

Source of the values: patent publication US7196105B2, “Treatment of human multiple myeloma by curcumin” (Research Development Foundation, priority 2002, dated 2007).
